Test results as given in patent publication US20240342190A1, “METHODS FOR REDUCING ISCHEMIA-REPERFUSION INJURIES” (BioMimetix JV, LLC, priority 2023, published 2024).
“Also recorded” adds a separate entry of the source.

Columns and labels:
[1] = tested on: brain tissues and vessels (vascular endothelial wall); experiment: Experiment 7: body weight and brain/vascular histology after intracarotid infusion; details: non-stroke rats; 3 days after intracarotid infusion; H&E
Protocol: 30 μg/kg of BMX-001 (n=4), or same amount of saline (n=4) or Solu-Medrol (n=4) was given to normal Wistar rats through the carotid artery. Rats were recovered for 3 days and perfused intracardially with normal saline followed by 10% formalin. Brains were paraffin embedded, cut, and stained with hematoxylin and eosin. Vascular histologic damage was assessed.

[2] = tested on: young male Wistar rats subjected to 90 min of MCAO (ischemic stroke); experiment: Experiment 1: acute stroke outcome after 90 min MCAO, intracarotid BMX-001 then subcutaneous for 7 days; type: in vivo, rat
Protocol: (§1) The rats were fasted overnight for glucose control. On the surgery day, they were anesthetized with 5% isoflurane in 30% oxygen balanced with nitrogen. The trachea was orally intubated, and both lungs were mechanically ventilated to maintain normocapnia. Isoflurane was reduced to 1.5% during the surgical procedure. A 22-gauge needle thermistor was percutaneously inserted beneath the temporalis muscle adjacent to the skull. The pericranial temperature was maintained at 37.0° C.±0.2° C. by a surface heat lamp. The tail artery was cannulated with PE 50 tubing (BD Intramedic™ Polyethylene Tubing, Sparks, MD, USA), and arterial blood pressure was continuously monitored. 50 IU of heparin was given via arterial line to prevent intra-arterial thrombosis. Arterial blood samples were collected pre, during, and after ischemia for blood gas, glucose, and hematocrit measurements.
(§2) Ischemic stroke was induced by transiently occluding the middle cerebral artery (MCAO) as previously reported.^23,24 Briefly, a midline cervical incision was made and the right common carotid artery […] was identified. The external and internal carotid arteries were dissected. […] The internal carotid artery (ICA) was dissected distally until the origin of the pterygopalatine artery was visualized. After surgical preparation, a 10 min interval was allowed for physiologic stabilization. […] The common carotid artery was re-opened, and a timer was started as the onset of cerebral ischemia.
(§3) After 90 min of MCAO, the filament was removed and a PE-10 tube (BD Intramedic™ Polyethylene Tubing, Sparks, MD, USA) was inserted into the ICA beyond the origin of the pterygopalatine artery. The vehicle or BMX-001 (30-50 μg/kg) solution (1 μl/g for both solutions, 250 μl for the 250 g rat) was slowly infused for 5 minutes via syringe pump. At the completion of intra-carotid infusion, the PE tube was removed and the ECA stump was permanently ligated. The tail artery catheter was removed and both the neck incision and tail incision were infiltrated with bupivacaine and closed with suture. Isoflurane was discontinued. Rats were disconnected from the ventilator when they attained spontaneous respiration and kept in a recovery cage. The tracheas were extubated after recovery of the righting reflex. They were in an O2 enriched environment (30% O2) for 1 h and then returned to the home cage.
(§4) Post-stroke neurologic deficits were assessed at day 7 and 28 using a standardized neurological scoring system.^27,28 General status, simple motor deficit, complex motor deficit, and sensory deficit were evaluated, including the ability of walking on a beam and climbing on the vertical screen. The total score each animal received was the sum of all four individual scores (0-48, 0=normal and 48=the worst score).
(§5) Upon the completion of functional tests, the animals were weighed, anesthetized with isoflurane, and decapitated. The brains were harvested, frozen at −20° C. in 2-methylbutane on dry ice, and stored in a −80° C. freezer. Serial quadruplicate 20-μm-thick coronal sections were cut using a Leica cryostat and mounted on the slides at 720-μm interval over the rostral-caudal extent of the brain. The sections were dried on a slide heater at 36° C., and stained with hematoxylin and eosin. A section from each […] interval was digitized with a video camera controlled by an image analyzer (MCID, the MicroComputer Imaging Device, Imaging Research Inc, St. Catharines, Ontario, Canada). […] With the observer blinded to the experimental condition, the following regions of interest (ROI) were outlined individually using an operator-controlled cursor, including non-infarcted ipsilateral cerebral cortex, non-infarcted ipsilateral subcortex, contralateral cerebral cortex, and contralateral subcortex. The area in each ROI (mm^2) was determined by automated counting of calibrated pixels and the volume (mm^3) was computed by the known interval between sections over the rostral-caudal extent of brain. […]

[3] = Experiment 8: interaction of BMX-001 with t-PA (blood clot dissolution); design: species or system rat; details: blood clot dissolution, t-PA vs t-PA plus BMX-001
Protocol: Fresh arterial blood samples were collected from young male rats and distributed into 21 pre-weighed centrifuge tubes. After sitting at 37° C. for 3 hours, the blood clots were formed. The supernatant was removed from these tubes and then the tubes with blood clots were weighed. The weight of the blood clot was calculated (=the tube with blood clot-pre-weighed tube). Then, 1 ml saline, t-PA (1 mg/ml) or t-PA (1 mg/ml) plus BMX-001 (50 μg/ml) were added (n=7 for each group) and tubes placed in 37° C. dry incubator for 3 hours. The liquids were then removed from the tubes. The tubes with remaining blood clots were weighed again. The percentage of blood clot dissolved by t-PA was calculated.

[4] = tested on: young male spontaneously hypertensive rats (SHR) subjected to 90 min of MCAO; experiment: Experiment 4: stroke outcome in young spontaneously hypertensive rats; type: in vivo, rat; details: for Neurologic score: median±IQR
Protocol: as §1, §2, §3, §4, §5

[5] = tested on: aged female Fisher 344 rats subjected to 90 min of MCAO; experiment: Experiment 5: stroke outcome in aged female rats; type: in vivo, rat; details: for Neurologic score: median±IQR, p<0.001
Protocol: as §1, §2, §3, §4, §5

Compound: CCCCOCC[n+]1ccccc1C1=C2C=CC3=[N+]2[Mn]24[n]5c1ccc5C(c1cccc[n+]1CCOCCCC)=C1C=CC(=[N+]12)C(c1cccc[n+]1CCOCCCC)=c1ccc([n]14)=C3c1cccc[n+]1CCOCCCC [BMX-001, MnTnBuOE-2-PyP^5+]
- Brain histology / vascular histologic damage, in words [1]: normal; also recorded: no histologic damage
- Perioperative blood pressure (FIG. 1, Panel A), in words ([2]; 5 min vs 45 min post-treatment): lower blood pressure
- Perioperative blood pressure ([2]; 10 minutes post-ischemia, after 30 μg/kg intracarotid BMX-001, p=0.04 vs vehicle): 75±4 mmHg
- Body weight ([2]; 24 hours post-stroke): 252±9 grams
- Post-stroke body weight recovery (FIG. 1, Panel B), in words ([2]; body weight at 7 Days vs 24 hours, p=0.02): promoted post-stroke body weight recovery
- Infarct volume (FIG. 1, Panel D), in words ([2]; day 7 post-stroke): significantly improved
- Neurologic scores (FIG. 1, Panel C), in words ([2]; day 7 post-stroke): significantly improved
- Body weight ([2]; day 7 post-stroke, p=0.02 vs 24 hours): 279±9 grams
- Subcortex infarct ([2]; day 7 post-stroke, p=0.02 vs vehicle): 38.964 ±8.892 mm^3
- Total infarct ([2]; day 7 post-stroke, p=0.04 vs vehicle): 89.097±48.424 mm^3
- Cortex infarct ([2]; day 7 post-stroke, p=0.07 vs vehicle): 49.864±42.899 mm^3
- Neurologic score ([2]; post-stroke day 7, score 0-48 (0=normal), median±IQR, p<0.01 vs vehicle): 4±3.5
- Interaction of BMX-001 with t-PA, in words [3]: does not React with t-PA
- MAP ([4]; 10 minutes post-stroke, SHR rats): 83 ± 11 mmHg
- Infarct volume (FIG. 4, Panel C), in words ([4]; 28 days): no intra-group difference
- Subcortex infarct volume ([4]; 28 days, p=0.14): 51±23 mm^3
- Total infarct volume ([4]; 28 days, p=0.21): 179±51 mm^3
- Cortex infarct volume ([4]; 28 days, p=0.37): 128±37 mm^3
- Neurologic score ([4]; day 7, p=0.05 vs vehicle): 14±8
- Neurologic score ([4]; day 28, p=0.018 vs vehicle): 9.5±6.25
- Neurological deficits (FIG. 4, Panel B), in words ([4]; day 28 post-stroke): significantly improved
- Rats survived for 28 days ([4]; of n=15, three BMX-001 rats died at 8, 9 and 10 days after stroke): 12
- MAP ([5]; 10 minutes post-stroke, aged female Fisher 344 rats): 90 ± 13 mmHg
- Infarct volume (FIG. 5, Panel C), in words ([5]; 28 days after stroke): significantly reduced infarct volume
- Reduction of infarct volume ([5]; 28 days after stroke, vs vehicle): 60%
- Subcortex infarct volume ([5]; 28 days, p=0.0010): 10±12 mm^3
- Total infarct volume ([5]; 28 days, p=0.0037 vs vehicle): 31±41 mm^3
- Cortex infarct volume ([5]; 28 days, p=0.0122 vs vehicle): 21±32 mm^3
- Neurologic score ([5]; day 7): 4±4.75
- Neurologic functions (FIG. 5, Panel B), in words ([5]; day 7 and 28 post-stroke): significantly attenuated neurologic deficits
- Body weight ([5]; day 7 post-stroke): 233±19 grams
- Body weight loss from the baseline body weight ([5]; day 7 post-stroke): 8 grams
- Neurologic score ([5]; day 28): 4±4.75
- Rats died at post-stroke day 2 due to large infarct ([5]; of n=17): one
